Series [1] can be described thus: Dose Through Unit (DTU) dose uniformity of MDI. It counts as physicochemical. The settings on record: for overall mean dose of medicament delivered through the actuator, combining beginning and end of use doses: MDI, Compound A 22.5 μg; for overall mean dose of medicament delivered through the actuator, combining beginning and end of use doses / overall mean dose delivered through the actuator, combined beginning and end of use: HFA 134a; for overall mean dose delivered through the actuator, combining beginning and end of use: Example 4: Compound A in combination with Compound D, HFA-134a MDI 100/100 μg/act, target output compound D 90 μg, compound A 90 μg; for overall mean dose delivered through the actuator, combined beginning and end of use: Example 5: Compound E in combination with Compound A, MDI 100/50 μg/act, target output Compound E 90 μg, Compound A 45 μg. The procedure:
The dose collection apparatus (500 ml separatory funnel with a cotton plug) was assembled and the flow rate was set to 20 L/min. Test units were stored at ambient conditions for two weeks after manufacture prior to DTU testing. For the testing at the beginning of the unit, the MDIs were primed two times with a priming actuator and four times to waste with the test actuator, shaking the units between each actuation. Two test actuations were collected in the dose collection apparatus, shaking the unit between actuations. The collection apparatus was rinsed with an appropriate volume of diluent, and the rinsate with the collected dose was analyzed by conventional HPLC analysis. For end of unit testing, the MDIs were actuated an additional 48 times to waste, shaking between each actuation. The MDIs were then actuated four times to waste through a new test actuator. Two test actuations were then collected in the dose collection apparatus, shaking the unit between actuations. The collection apparatus was rinsed with an appropriate volume of diluent, and the rinsate with the collected dose was analyzed by conventional HPLC analysis.
The reported results are the average of ten units at both the beginning and end of unit use.

Series [2] is described as follows: Andersen Cascade Impactor (ACI) fine particle fraction of MDI. It counts as physicochemical. The settings on record: for Fine Particle Fraction expressed as a percentage of the total dose target, for Compound B, 10 μg and for the Compound A, 25 μg: Example 2: Compound A in combination with Compound B; for Fine Particle Fraction expressed as a percentage of the total dose target, for Compound B, 10 μg and for the Compound A, 25 μg / Fine Particle Fraction (FPF) expressed as a percentage of the total dose target, for Compound C, 12.5 μg and for Compound A, 25 μg: MDI; for Fine Particle Fraction expressed as a percentage of the total dose target, for Compound B, 10 μg and for the Compound A, 25 μg / Fine Particle Fraction (FPF) expressed as a percentage of the total dose target, for Compound C, 12.5 μg and for Compound A, 25 μg / Fine Particle Fraction (FPF) expressed as percentage of the total dose target of Compound E, 100 μg and for Compound A, 50 μg: HFA 134a; for Fine Particle Fraction (FPF) expressed as a percentage of the total dose target, for Compound C, 12.5 μg and for Compound A, 25 μg: Example 3: Compound A in combination with Compound C, 25/12.5 μg/act; for Fine Particle Fraction (FPF) expressed as a percentage of the total dose target, for Compound D, 100 μg, and for Compound A, 100 μg: Example 4: Compound A in combination with Compound D, HFA-134a MDI 100/100 μg/act; for Fine Particle Fraction (FPF) expressed as percentage of the total dose target of Compound E, 100 μg and for Compound A, 50 μg: Example 5: Compound E in combination with Compound A, MDI 100/50 μg/act. An excerpt:
The fine particle fraction of the aerosol formulations according to the invention may be measured by conventional techniques, for example, by cascade impaction by measuring particle size distribution. The Cascade Impactor is designed to mimic the human buccal cavity and bronchial tract and the cascade Impactor test is designed to reveal the amount of deposition of inhaled drug substance at various stages thereof. As used herein reference to the “cascade impaction” assay means determination of the deposition of the emitted dose in pressurised inhalations as defined in European Pharmacopoeia, Section 2.9.18, 5th edition “Preparations for Inhalation, Apparatus D”. Such techniques enable the “respirable fraction” of the aerosol formulations to be calculated. One method used to calculate the “respirable fraction” is by reference to “fine particle fraction” which is the amount of active ingredient collected in stages 3 to 5 (aerodynamic diameter 1.1-4.7 μm) which represents the lung, per actuation expressed as a percentage of the total amount of active ingredient delivered per actuation using the cascade impactor method described above. Earlier stages represent the aerosol device itself, the throat and the upper reaches of the bronchial tract, and the later stages representing potential systemic absorption through the wall of the lung which may cause serious side effects.
The Andersen Cascade Impactor Mark II (ACI) was assembled and the flow rate was set to 28.3 L/min. The units were primed four times with the test actuator prior to dose collection, shaking between actuations. Between 5 and 20 actuations were collected in the ACI assembly. The ACI was disassembled and the components were rinsed with an appropriate amount of solvent that ensures dissolution of all formulation ingredients. The rinsate was collected for analysis by conventional HPLC analysis.

Setting [3] is: 0.1% w/w of polymer of formula (II), 12 Week at 40° C./75% relative humidity.
Where [4] appears, read: 0.1% w/w of polymer of formula (II), Initial.

On to `O=CNc1cc([C@@H](O)CNCCc2ccc(NC[C@H](O)c3ccccc3)cc2)ccc1O` [Compound B], for which the “overall mean dose of medicament delivered through the actuator, combining beginning and end of use doses” value in series [1] (Example 2: Compound A in combination with Compound B, 25/10 μg/act, 0.1% w/w of polymer of formula (II), 12 Week at 40° C./75% relative humidity, target output Compound B 8.5 μg) was 99%; in series [1] (Example 2: Compound A in combination with Compound B, 25/10 μg/act, 0.1% w/w of polymer of formula (II), Initial, target output Compound B 8.5 μg) it was 98%; in series [1] (Example 2: Compound A in combination with Compound B, 25/10 μg/act, surfactant-free, 12 Week at 40° C./75% relative humidity, target output Compound B 8.5 μg) it was 73%; in series [1] (Example 2: Compound A in combination with Compound B, 25/10 μg/act, surfactant-free, Initial, target output Compound B 8.5 μg), 71%. Besides, the “Fine Particle Fraction expressed as a percentage of the total dose target, for Compound B, 10 μg and for the Compound A, 25 μg” value in series [2] (setting [3]) turned out to be 26%; in series [2] (setting [4]), 25%; in series [2] (surfactant-free, 12 Week at 40° C./75% relative humidity), 21%; in series [2] (surfactant-free, Initial), 20%.

`NS(=O)(=O)c1cccc(CCCCOCCCCCCNC[C@H](O)c2ccc(O)c(CO)c2)c1` [Compound C, 3-(4-{[6-({(2R)-2-hydroxy-2-[4-hydroxy-3-(hydroxymethyl)-phenyl]ethyl}amino)hexyl]oxy}butyl)benzenesulfonamide]: the “overall mean dose of medicament delivered through the actuator, combining beginning and end of use doses” value in series [1] (Example 3: Compound A in combination with Compound C, 25/12.5 μg/act, 0.1% w/w polymer of formula (II), 12 Week at 40° C./75 relative humidity, target output Compound C 11.3 μg) worked out at 112%; in series [1] (Example 3: Compound A in combination with Compound C, 25/12.5 μg/act, 0.1% w/w polymer of formula (II), Initial, target output Compound C 11.3 μg), 96%; in series [1] (Example 3: Compound A in combination with Compound C, 25/12.5 μg/act, surfactant-free, 12 Week at 40° C./75 relative humidity, target output Compound C 11.3 μg), 90%; in series [1] (Example 3: Compound A in combination with Compound C, 25/12.5 μg/act, surfactant-free, Initial, target output Compound C 11.3 μg) it was 80%. The “Fine Particle Fraction (FPF) expressed as a percentage of the total dose target, for Compound C, 12.5 μg and for Compound A, 25 μg” value in series [2] (0.1% w/w polymer of formula (II), 12 Week 40° C./75 relative humidity) turned out to be 25%; in series [2] (0.1% w/w polymer of formula (II), Initial), 28%; in series [2] (surfactant-free, 12 Week 40° C./75 relative humidity) it was 21%; in series [2] (surfactant-free, Initial), 14%.

For `OCc1cc([C@@H](O)CNCCCCCCOCCOCc2c(Cl)cccc2Cl)ccc1O` [Compound D, 4-{(1R)-2-[(6-{2-[(2,6-dichlorobenzyl)oxy]ethoxy}hexyl)amino]-1-hydroxyethyl}-2-(hydroxymethyl) phenol], the “overall mean dose delivered through the actuator, combining beginning and end of use” value in series [1] (setting [3]) is recorded as 104%; in series [1] (setting [4]), 101%. Besides, the “Fine Particle Fraction (FPF) expressed as a percentage of the total dose target, for Compound D, 100 μg, and for Compound A, 100 μg” value in series [2] (setting [3]) came to 27%; in series [2] (setting [4]), 32%.

With `COc1ccc(Nc2ccc(CCNCC(O)c3ccc(O)c4[nH]c(=O)ccc34)cc2)cc1-c1ccccc1` (stereo not drawn) [Compound E, N-{2-[4-(3-phenyl-4-methoxyphenyl)aminophenyl]ethyl}-2-hydroxy-2-(8-hydroxy-2(1H)-quinolinon-5-yl)ethylamine], the “overall mean dose delivered through the actuator, combined beginning and end of use” value in series [1] (setting [3]) is 106%; in series [1] (setting [4]) it was 104%. Also, the “Fine Particle Fraction (FPF) expressed as percentage of the total dose target of Compound E, 100 μg and for Compound A, 50 μg” value was 28% in series [2] (setting [3]) and 26% in series [2] (setting [4]).

(Values after patent publication US20090123391A1, “Novel Formulations” (3M INNOVATIVE PROPERTIES COMPANY, priority 2006, published 2009).)
